Legend:
[1] = target: Glutamate receptor ionotropic, kainate 2 (Homo sapiens, UniProt Q13002); experiment: Binding affinity at iGluR6(V,C,R) receptor expressed in sf9 cells by radioligand binding assay
Glutamate receptor 3 = Glutamate receptor 3 (Homo sapiens, UniProt P42263); experiment: Binding affinity at iGluR3o receptor expressed in sf9 cells by radioligand binding assay
Glutamate receptor 4 = Glutamate receptor 4 (Homo sapiens, UniProt P48058); experiment: Binding affinity at iGluR4o receptor expressed in sf9 cells by radioligand binding assay
Glutamate receptor 1 = Glutamate receptor 1 (Homo sapiens, UniProt P42261); experiment: Binding affinity at iGluR1o receptor expressed in sf9 cells by radioligand binding assay
Glutamate receptor 2 [2] = target: T1, Glutamate receptor 2 (Homo sapiens, UniProt P42262); experiment: Binding affinity at iGluR2o(R) receptor expressed in sf9 cells by radioligand binding assay
Glutamate receptor 2 [3] = target: T1, Glutamate receptor 2; experiment: Binding affinity at iGluR2 receptor S1S2J domain expressed in sf9 cells by radioligand binding assay

T1 sequence (P42262 whole entry, the tested form may be a part): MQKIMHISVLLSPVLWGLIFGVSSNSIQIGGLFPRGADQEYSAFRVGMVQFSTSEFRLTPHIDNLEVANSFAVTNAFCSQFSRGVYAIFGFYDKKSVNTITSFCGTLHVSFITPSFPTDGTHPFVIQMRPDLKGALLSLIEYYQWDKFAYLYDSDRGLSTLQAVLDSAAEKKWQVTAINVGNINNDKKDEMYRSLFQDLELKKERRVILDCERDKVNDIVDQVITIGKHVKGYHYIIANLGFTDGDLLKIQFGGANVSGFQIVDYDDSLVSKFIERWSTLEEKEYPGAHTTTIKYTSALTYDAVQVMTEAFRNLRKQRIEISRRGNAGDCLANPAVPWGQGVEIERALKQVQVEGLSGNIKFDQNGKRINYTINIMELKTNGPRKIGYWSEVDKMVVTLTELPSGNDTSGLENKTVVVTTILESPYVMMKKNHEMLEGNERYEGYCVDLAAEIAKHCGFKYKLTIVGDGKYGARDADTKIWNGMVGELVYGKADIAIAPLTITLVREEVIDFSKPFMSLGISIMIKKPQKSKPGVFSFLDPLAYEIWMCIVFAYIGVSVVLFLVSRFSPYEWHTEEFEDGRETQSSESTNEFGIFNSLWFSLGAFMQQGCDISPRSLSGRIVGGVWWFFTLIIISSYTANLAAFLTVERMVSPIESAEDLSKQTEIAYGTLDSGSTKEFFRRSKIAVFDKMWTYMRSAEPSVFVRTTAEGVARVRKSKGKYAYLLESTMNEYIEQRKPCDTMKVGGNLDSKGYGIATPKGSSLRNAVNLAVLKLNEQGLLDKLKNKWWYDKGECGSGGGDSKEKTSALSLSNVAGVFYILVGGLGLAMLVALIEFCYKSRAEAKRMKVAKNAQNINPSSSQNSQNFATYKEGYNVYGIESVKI
Chain of Glutamate receptor 1 (P42261 whole entry): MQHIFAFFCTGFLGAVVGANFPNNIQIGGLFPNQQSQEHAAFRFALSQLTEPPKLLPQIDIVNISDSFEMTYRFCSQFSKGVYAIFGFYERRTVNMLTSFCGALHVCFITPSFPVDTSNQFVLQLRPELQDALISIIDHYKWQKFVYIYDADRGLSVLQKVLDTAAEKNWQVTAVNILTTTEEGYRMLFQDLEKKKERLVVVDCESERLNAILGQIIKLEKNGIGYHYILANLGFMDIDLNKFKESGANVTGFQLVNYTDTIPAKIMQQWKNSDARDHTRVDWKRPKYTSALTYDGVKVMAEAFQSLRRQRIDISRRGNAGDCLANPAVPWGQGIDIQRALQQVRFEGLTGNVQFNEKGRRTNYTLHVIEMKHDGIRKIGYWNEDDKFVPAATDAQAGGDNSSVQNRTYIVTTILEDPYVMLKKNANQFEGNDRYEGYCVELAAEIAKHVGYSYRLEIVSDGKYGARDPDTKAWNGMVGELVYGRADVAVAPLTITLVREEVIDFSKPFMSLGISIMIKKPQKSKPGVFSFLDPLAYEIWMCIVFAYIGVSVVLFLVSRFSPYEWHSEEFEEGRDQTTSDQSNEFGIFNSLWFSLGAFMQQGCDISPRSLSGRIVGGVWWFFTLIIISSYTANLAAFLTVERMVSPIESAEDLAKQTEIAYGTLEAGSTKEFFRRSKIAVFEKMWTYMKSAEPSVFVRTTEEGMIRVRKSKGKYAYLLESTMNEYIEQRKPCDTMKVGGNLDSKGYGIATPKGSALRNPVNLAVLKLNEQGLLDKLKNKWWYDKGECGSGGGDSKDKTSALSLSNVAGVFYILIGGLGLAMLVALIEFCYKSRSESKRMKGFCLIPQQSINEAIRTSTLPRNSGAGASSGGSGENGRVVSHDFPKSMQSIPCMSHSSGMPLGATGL
Chain of Glutamate receptor 4 (P48058 whole entry): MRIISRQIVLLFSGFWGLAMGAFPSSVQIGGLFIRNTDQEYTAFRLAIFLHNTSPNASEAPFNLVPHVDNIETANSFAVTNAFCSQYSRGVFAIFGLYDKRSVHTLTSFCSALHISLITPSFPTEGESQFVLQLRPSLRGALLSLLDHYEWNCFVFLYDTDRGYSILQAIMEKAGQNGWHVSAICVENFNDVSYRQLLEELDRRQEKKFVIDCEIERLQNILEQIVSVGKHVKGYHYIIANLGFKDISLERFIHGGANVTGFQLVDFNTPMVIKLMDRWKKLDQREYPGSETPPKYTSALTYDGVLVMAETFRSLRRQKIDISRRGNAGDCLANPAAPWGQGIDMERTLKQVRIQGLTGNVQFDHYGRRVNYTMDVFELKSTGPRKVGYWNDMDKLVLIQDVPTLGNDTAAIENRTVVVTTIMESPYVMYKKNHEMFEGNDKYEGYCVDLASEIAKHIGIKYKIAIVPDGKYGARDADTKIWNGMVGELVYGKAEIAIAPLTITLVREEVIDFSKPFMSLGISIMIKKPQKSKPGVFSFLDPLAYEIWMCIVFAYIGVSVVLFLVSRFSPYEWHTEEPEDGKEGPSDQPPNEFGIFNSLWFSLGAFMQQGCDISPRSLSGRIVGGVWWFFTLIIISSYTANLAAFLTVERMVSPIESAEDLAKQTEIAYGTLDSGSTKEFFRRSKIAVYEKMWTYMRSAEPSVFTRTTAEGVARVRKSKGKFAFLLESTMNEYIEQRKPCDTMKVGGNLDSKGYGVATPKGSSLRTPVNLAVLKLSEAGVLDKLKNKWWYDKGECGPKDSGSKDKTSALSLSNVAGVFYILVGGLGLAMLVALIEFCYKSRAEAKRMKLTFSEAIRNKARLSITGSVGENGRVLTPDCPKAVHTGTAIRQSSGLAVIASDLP
Chain of Glutamate receptor 3 (P42263 whole entry): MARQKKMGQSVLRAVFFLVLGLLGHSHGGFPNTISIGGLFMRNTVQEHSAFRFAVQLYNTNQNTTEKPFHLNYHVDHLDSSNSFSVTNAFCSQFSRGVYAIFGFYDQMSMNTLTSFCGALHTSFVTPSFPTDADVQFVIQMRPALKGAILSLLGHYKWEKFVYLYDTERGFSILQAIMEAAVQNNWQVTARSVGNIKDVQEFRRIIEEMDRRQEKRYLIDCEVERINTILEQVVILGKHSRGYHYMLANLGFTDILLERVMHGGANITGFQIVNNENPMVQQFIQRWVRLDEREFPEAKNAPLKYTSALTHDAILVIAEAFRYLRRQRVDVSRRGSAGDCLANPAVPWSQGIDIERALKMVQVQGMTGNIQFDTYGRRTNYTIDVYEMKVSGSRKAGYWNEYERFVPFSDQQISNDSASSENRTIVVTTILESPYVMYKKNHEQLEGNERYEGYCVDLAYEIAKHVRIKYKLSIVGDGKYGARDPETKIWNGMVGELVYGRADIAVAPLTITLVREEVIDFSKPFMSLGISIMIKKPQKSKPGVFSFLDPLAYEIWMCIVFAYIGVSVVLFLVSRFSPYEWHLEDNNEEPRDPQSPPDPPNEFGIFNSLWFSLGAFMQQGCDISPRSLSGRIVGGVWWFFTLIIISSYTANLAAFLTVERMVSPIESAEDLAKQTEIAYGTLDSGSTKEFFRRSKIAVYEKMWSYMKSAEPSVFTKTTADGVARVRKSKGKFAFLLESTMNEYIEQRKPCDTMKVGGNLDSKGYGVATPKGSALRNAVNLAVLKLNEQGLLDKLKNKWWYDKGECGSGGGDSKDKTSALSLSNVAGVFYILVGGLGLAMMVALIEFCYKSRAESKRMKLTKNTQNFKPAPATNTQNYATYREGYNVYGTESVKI
Chain of Glutamate receptor ionotropic, kainate 2 (Q13002 whole entry): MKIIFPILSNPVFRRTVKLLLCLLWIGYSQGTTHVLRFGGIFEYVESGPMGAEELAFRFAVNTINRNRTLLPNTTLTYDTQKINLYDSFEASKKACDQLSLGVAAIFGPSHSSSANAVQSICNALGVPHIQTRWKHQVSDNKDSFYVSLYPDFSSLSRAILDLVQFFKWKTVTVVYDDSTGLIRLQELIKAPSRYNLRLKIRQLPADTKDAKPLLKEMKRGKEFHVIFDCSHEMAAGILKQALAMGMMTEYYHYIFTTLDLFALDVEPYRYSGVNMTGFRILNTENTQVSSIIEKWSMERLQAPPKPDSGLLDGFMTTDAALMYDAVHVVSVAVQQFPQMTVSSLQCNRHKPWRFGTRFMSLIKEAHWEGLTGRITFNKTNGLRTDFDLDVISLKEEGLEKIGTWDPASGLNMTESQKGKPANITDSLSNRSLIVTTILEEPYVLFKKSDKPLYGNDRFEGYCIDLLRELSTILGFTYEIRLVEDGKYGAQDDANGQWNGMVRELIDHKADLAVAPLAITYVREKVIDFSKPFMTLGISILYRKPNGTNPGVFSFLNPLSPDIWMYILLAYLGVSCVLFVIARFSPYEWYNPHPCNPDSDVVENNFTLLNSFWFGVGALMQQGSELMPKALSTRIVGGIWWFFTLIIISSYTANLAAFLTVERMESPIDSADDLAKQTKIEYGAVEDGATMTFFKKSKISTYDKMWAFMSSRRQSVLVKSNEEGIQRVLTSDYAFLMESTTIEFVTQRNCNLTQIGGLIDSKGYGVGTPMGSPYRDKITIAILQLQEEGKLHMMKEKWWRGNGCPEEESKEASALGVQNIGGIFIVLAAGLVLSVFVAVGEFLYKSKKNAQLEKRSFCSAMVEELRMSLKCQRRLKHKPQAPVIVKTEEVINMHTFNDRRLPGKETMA

| SMILES | Ki [1] [µM] | Ki (Glutamate receptor 3) [µM] | Ki (Glutamate receptor 4) [µM] | Ki (Glutamate receptor 1) [µM] | Ki (Glutamate receptor 2 [2]) [µM] | Ki (Glutamate receptor 2 [3]) [µM] |
| --- | --- | --- | --- | --- | --- | --- |
| N[C@H](Cc1ns[nH]c1=O)C(=O)O | > 1000 | 1.07 | 1.05 | 0.15 | 0.234 | 0.531 |
| N[C@@H](Cc1nsnc1O)C(=O)O | > 100 | 0.16 | 0.182 | 0.185 | 0.273 | 0.323 |
